Experimental findings from paper PMC4307180, “Overcoming myelosuppression due to synthetic lethal toxicity for FLT3-targeted acute myeloid leukemia therapy” (eLife, 2014) are described below.

In one series the test system is zebrafish embryos. Description: Zebrafish embryonic development / WT morphology. In kind it is in vivo, Danio rerio (zebrafish). Conditions: 3 dpf, drug from 6 hpf. How it is done: (§1) Figure 4. […] (N–P) Three categories of mpo transcription (N, normal; O, intermediate; P, severe) were defined based on the WISH results (three experiments). […] Scale bar equals 500 μm. Blue arrows indicate the pericardial edema, green arrows indicate tail shortening and curving, and red arrows indicate the FLT3-ITD AML mpo+ myeloid cells expansion. […] For all experiments: Zebrafish embryos were collected and kept in standard E3 medium at 28°C. Different concentrations of either drug were added to the E3 medium from 6 hr post fertilization (hpf) to 3 days post fertilization (dpf). Embryos treated with DMSO or 10 μM drug from 6 to 30 hpf were collected for mpo whole mount in situ hybridization (WISH) analysis. […] plasmid DNA containing FLT3/ITD sequence was microinjected into one-cell stage embryos, and the uninjected embryos were used as control. FLT3/ITD-injected embryos were treated with DMSO or 10 μM drug from 6 to 30 hpf.
(§2) Wild-type (WT) zebrafish were maintained under standard conditions, and embryos were staged as described ([He et al., 2014]). The study was approved by the Committee of the Use of Live Animals for Teaching and Research in The University of Hong Kong.

Another series has as its system Ba/F3 FLT3 ITD + D835V. Description: Ba/F3 cell viability, FLT3 ITD + D835V. The series is classed as cell-based. Conditions: Mus musculus, Ba/F3, 48 hr, ± SEM. The method, then: (§3) Stable Ba/F3 lines were generated by retroviral spinfection with the appropriate mutated plasmid as previously described ([Smith et al., 2012]).
(§4) Exponentially growing cells (5 × 10^3 cells per well) were plated in each well of a 96-well plate with 0.1 ml of RPMI 1640 + 10% (vol/vol) FCS containing the appropriate concentration of drug in triplicate, and cell viability was assessed after 48 hr as previously described ([Smith et al., 2012]). […] Log10-scale transformation of ratios, followed by conditional formatting using xcel spreadsheet software yielded the colored diagrams shown.
(§5) Mutations isolated in the screen were engineered into pMSCVpuroFLT3–ITD by QuikChange mutagenesis (Stratagene, La Jolla, CA) as previously described ([Smith et al., 2012]).

The subject of another series is K562 cells (Bcr-Abl). Description: Cell proliferation/viability assay, K562. In kind it is cell-based. Conditions: Homo sapiens, 48 hr. How it is done: as §4
For the next series, the target named is T1, purified FLT3 WT (Homo sapiens, UniProt P36888).
T1 sequence (P36888 27-993): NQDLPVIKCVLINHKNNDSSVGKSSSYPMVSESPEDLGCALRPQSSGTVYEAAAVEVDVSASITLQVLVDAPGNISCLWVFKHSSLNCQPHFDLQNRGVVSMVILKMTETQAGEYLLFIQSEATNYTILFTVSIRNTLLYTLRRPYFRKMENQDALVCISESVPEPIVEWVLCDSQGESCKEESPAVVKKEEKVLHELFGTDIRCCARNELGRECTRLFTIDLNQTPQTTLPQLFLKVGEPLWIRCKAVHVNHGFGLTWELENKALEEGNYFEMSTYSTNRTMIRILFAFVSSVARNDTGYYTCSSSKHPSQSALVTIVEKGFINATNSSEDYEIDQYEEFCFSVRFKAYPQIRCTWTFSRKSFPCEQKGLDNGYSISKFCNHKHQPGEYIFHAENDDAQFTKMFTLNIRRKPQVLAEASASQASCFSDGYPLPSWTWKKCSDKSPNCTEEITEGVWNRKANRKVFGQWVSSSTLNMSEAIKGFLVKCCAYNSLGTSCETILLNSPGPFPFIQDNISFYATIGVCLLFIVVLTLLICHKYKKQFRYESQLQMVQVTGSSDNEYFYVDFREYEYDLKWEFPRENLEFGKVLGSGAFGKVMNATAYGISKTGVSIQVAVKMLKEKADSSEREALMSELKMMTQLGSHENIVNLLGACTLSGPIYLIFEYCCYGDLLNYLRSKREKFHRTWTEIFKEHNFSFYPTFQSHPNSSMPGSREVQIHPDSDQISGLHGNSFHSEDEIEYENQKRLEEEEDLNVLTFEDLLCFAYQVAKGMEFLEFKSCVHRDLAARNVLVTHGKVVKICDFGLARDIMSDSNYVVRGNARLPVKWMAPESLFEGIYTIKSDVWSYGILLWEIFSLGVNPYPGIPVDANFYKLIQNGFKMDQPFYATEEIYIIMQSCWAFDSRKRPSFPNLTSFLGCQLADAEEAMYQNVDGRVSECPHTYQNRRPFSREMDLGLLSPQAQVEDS
Nature of the series: Radiolabeled purified kinase assay (Figure 1B).

The next series concerns Ba/F3 FLT3 ITD + D835F. Nature of the series: Ba/F3 cell viability, FLT3 ITD + D835F. In kind it is cell-based. The conditions noted are these: Mus musculus, Ba/F3, 48 hr, ± SEM. How it is done: as §3, §4, §5
A further series has as its system HMC1.1 cells. Nature of the series: Caspase-3 activation (apoptosis), HMC1.1. The series is classed as cell-based, human. Conditions: 48 hr, up to 2,500 nM. How it is done:
Cells were fixed with 4% (vol/vol) paraformaldehyde (Electron Microscopy Sciences) and permeabilized with 100% (vol/vol) methanol (Electron Microscopy Sciences, Hatfield, PA) followed by staining with a FITC-conjugated antiactive caspase-3 antibody (BD Pharmingen, San Jose, CA). Cells were run on a BD LSRFortessa cell analyzer, and data were analyzed using FlowJo (Tree Star Inc., Ashland, OR). Percentage of live cells was determined by negative staining for activated caspase-3 (see Figure 2B,C).

A further series concerns the target KIT (Homo sapiens, UniProt P10721). Description: Reaction Biology Corp kinase assay at Km-ATP (Figure 1C), KIT.
In another series the target is T2, FLT3 (Homo sapiens, UniProt P36888).
T2 sequence (P36888 27-993): T1 sequence (P36888 27-993)
Nature of the series: Reaction Biology Corp kinase assay at Km-ATP (Figure 1C), FLT3.

In another series the target is PDGFRα (Homo sapiens, UniProt P16234). Nature of the series: Reaction Biology Corp kinase assay at Km-ATP (Figure 1C), PDGFRα.
A further series has as its system Ba/F3 Parental + IL3. Nature of the series: Ba/F3 cell viability, Parental + IL3. The series is classed as cell-based. Conditions: Mus musculus, BaF3; Ba/F3, 48 hr, ± SEM. How it is done:
as §3, §4

The subject of a further series is Ba/F3 FLT3 ITD + D835Y. Description: Ba/F3 cell viability, FLT3 ITD + D835Y. The series is classed as cell-based. Conditions: Mus musculus, Ba/F3, 48 hr, ± SEM. The method, then: as §3, §4, §5
Series [1] has as its system FLT3/ITD-injected zebrafish embryos. Nature of the series: Zebrafish FLT3/ITD-induced mpo+ myeloid cell expansion. In kind it is in vivo, Danio rerio (zebrafish). Conditions: 10 μM, 6 to 30 hpf, read at 30 hpf. The method, then:
as §1, §2

The test system of the next series is Ba/F3 FLT3 ITD. Nature of the series: Ba/F3 cell viability, FLT3 ITD. In kind it is cell-based. Conditions: Mus musculus, Ba/F3, 48 hr, ± SEM. The method, then:
as §3, §4, §5

A further series has as its system Ba/F3 FLT3 ITD + D839G. Description: Ba/F3 cell viability, FLT3 ITD + D839G. Conditions: Mus musculus, Ba/F3, 48 hr, ± SEM. In kind it is cell-based. How it is done:
as §3, §4, §5

For a further series, the system named is HMC1.1 cells (KIT V560G). Nature of the series: Cell proliferation/viability assay, HMC1.1. In kind it is cell-based, human. The method, then: as §4

Structures are written as SMILES. “Also recorded” adds a separate entry of the source.

PDGFRα, sequence (P16234 24-1089): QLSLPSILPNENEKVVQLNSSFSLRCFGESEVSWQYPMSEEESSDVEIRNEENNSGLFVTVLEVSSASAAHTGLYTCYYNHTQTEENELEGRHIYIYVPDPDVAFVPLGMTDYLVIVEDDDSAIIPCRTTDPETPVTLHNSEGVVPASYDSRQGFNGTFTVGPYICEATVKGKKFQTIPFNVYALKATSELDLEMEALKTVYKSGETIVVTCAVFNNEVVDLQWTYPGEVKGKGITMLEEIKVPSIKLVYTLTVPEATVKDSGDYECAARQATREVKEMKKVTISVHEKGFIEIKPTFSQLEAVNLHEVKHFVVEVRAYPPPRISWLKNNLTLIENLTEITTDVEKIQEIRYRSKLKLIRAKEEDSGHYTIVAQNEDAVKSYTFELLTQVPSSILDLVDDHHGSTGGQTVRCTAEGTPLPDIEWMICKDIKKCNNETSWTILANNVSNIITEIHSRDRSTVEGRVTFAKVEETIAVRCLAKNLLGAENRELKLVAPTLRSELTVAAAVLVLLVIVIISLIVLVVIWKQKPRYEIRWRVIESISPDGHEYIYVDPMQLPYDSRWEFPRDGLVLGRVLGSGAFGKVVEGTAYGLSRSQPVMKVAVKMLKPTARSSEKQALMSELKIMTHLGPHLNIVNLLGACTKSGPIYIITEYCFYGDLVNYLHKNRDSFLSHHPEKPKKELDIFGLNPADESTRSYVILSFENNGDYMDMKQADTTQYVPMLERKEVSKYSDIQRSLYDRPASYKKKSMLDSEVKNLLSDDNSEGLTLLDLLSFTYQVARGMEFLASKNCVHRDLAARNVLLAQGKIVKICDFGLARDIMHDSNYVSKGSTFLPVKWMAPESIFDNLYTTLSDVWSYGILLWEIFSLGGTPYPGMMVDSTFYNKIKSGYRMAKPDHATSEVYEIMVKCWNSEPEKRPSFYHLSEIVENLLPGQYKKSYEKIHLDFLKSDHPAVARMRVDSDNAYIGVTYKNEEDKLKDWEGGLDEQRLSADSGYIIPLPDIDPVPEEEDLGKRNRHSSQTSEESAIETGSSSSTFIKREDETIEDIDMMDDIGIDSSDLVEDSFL
KIT, sequence (P10721 26-976): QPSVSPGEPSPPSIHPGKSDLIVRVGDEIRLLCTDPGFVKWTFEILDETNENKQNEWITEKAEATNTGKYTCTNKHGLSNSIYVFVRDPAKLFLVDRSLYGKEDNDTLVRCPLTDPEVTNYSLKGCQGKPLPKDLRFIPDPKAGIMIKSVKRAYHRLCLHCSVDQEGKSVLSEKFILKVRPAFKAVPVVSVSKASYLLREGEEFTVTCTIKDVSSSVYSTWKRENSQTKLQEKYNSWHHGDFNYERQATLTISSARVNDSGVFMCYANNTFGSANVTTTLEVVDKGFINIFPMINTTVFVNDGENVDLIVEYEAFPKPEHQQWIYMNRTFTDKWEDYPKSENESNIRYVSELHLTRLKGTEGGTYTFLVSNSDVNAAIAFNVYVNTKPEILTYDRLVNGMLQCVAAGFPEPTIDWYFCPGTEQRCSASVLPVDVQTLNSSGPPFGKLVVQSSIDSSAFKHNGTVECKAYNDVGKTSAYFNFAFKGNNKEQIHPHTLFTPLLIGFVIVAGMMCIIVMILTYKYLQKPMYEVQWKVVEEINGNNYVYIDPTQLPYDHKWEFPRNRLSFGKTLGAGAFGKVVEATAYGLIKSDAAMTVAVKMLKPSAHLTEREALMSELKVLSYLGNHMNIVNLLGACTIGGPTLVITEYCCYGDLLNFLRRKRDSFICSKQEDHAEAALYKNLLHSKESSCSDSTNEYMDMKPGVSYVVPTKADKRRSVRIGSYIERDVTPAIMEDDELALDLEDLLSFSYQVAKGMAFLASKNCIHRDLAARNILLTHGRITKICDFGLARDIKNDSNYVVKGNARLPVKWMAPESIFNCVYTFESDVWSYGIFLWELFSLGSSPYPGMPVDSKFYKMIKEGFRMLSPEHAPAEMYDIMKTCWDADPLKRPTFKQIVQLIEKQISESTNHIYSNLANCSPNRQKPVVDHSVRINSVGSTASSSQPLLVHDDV

Take `CC1NC(=O)c2c1c1c3ccccc3n(CCCN)c1c1[nH]c3ccccc3c21` (stereo not shown) [Star 27]: the “effect on zebrafish embryonic development / morphology” value in the series on zebrafish embryos was “no change in heart and tail morphology; also recorded: no noticeable morphological defects up to 10 μM”. Besides, the IC50 with Ba/F3 FLT3 ITD + D835V was 70 ± 58 nM; in the series on K562 cells (Bcr-Abl), more than 5000 nM; at purified FLT3 WT, 0.0015 µM; in the series with Ba/F3 FLT3 ITD + D835F it was 53 ± 36 nM; on KIT it was 1.02 µM; on FLT3, less than 0.0006 µM. Moreover, the IC50 against PDGFRα is 0.931 ± 0.109 µM; in the series on Ba/F3 Parental + IL3 it was 2300 nM; in the series on Ba/F3 FLT3 ITD + D835Y, 39 ± 24 nM; in the series on Ba/F3 FLT3 ITD it was 57 ± 45 nM; in the series with Ba/F3 FLT3 ITD + D839G it was 80 ± 41 nM; in the series on HMC1.1 cells (KIT V560G) (Homo sapiens, Kit V560 G, 48 hr, ± SEM) it was more than 5000 nM. For the same molecule, the “apoptosis/toxicity (caspase-3) in KIT-addicted HMC1.1 cells” value in the series on HMC1.1 cells is recorded as “very little up to 2,500 nM; also recorded: minimal apoptosis”. In addition, the “effect on FLT3/ITD-induced mpo+ myeloid cells expansion” value in [1] was “rescue of normal phenotype approaching that seen for AC220”. In addition, the “selectivity window HMC1.1/MV4;11” value in the series on HMC1.1 cells (KIT V560G) (ratio of proliferation IC50s) is more than 122 fold.

A word on the IC50: it is the point on the concentration scale where inhibition reaches its midpoint.
